Experimental data as given in patent US20260022143A1, “Cyclic Peptide Inhibitors of IL-23” (JANSSEN PHARMACEUTICA NV, priority 2022, published 2026).
Starred links: 1 amine or outer side, 2 acyl side, 3 side chain; linkers in the order of their positions; H or OH if unused. Positions of bridges follow the written chain, without caps; N, C: chain ends. Non-standard residues stand in square brackets, D forms with d. Residues, ends and D or L forms follow the SMILES beside them. *: point of attachment. Me3N+(CH2)2O(CH2)2O(CH2)2CO = C[N+](C)(C)CCOCCOCCC(=O)*; Trp(7-Me) = Cc1cccc2c(C[C@H](N)C(=O)O)c[nH]c12; X1 = CN(CC[C@H](N[*:1])C(=O)[*:2])[*:3]; 2Nal = N[C@@H](Cc1ccc2ccccc2c1)C(=O)O; AEF = NCCOc1ccc(C[C@H](N)C(=O)O)cc1; X82 = C[N+](C)(C)CCOCCOCCOCCOCCN*; 3Pal = N[C@@H](Cc1cccnc1)C(=O)O; Lys(Me) = CNCCCC[C@H](N)C(=O)O; X7 = COCCOCCOCCOCCOCCOCCC(=O)*; Pen = CC(C)(S)[C@H](N)C(=O)O; Thp = NC1(C(=O)O)CCOCC1; X3 = C[N+](C)(C)CCCCC*; Me2NCH2CH2 = CN(C)CC*; Sar = CNCC(=O)O

assay: Exposed Polar Surface Area (EPSA); type: physicochemical; settings: SFC on Chirex 3014 column; sample 1 mM DMSO stock; read-out: EPSA
Outline: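 SFC retention on a Chirex 3014 (S)-valine/(R)-1-(α-naphthyl)ethylamine column, 35 °C, CO2 with MeOH (20 mM ammonium formate) gradient 5–60% at 20%/min, 14 MPa outlet. Retention times converted to EPSA (Å^2) via linear calibration with 8 standards; samples from 1 mM DMSO stock, run in duplicate.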

Compound | EPSA
CC(=O)N(C)CCCC[C@@H]1NC(=O)[C@H](Cc2c[nH]c3c(C)cccc23)NC(=O)[C@H]([C@@H](C)O)NC(=O)[C@H](CC(=O)N(C)C)NC(=O)[C@@H](NC(=O)CCOCCOCC[N+](C)(C)C)C(C)(C)SSC(C)(C)[C@@H](C(=O)N[C@@H](Cc2ccc(OCCN)cc2)C(=O)N[C@@H](Cc2ccc3ccccc3c2)C(=O)NC2(C(=O)N[C@@H](CCC(=O)N(C)C)C(=O)N[C@@H](CC(N)=O)C(=O)N[C@@H](Cc3cccnc3)C(=O)N(C)CC(N)=O)CCOCC2)NC1=O [compound 150, cPEG3aCO-Pen(3)-N(N(Me)2)-T-7MeW-K(NMeAc)-Pen(3)-AEF-2Nal-THP-Q(N(Me)2)-N-3Pya-Sar-CONH2] ({Me3N+(CH2)2O(CH2)2O(CH2)2CO}-[Pen]D(NMe2)T[Trp(7-Me)][Lys(Me)](Ac)[Pen][AEF][2Nal][Thp]E(NMe2)N[3Pal][Sar]-NH2; disulfide 1-6) | 159 A^2
Cc1cccc2c(C[C@@H]3NC(=O)[C@H]([C@@H](C)O)NC(=O)[C@H](CC(=O)N(C)C)NC(=O)[C@@H](NC(=O)CCOCCOCC[N+](C)(C)C)C(C)(C)SSC(C)(C)[C@@H](C(=O)N[C@@H](Cc4ccc(OCCN(C)C)cc4)C(=O)N[C@@H](Cc4ccc5ccccc5c4)C(=O)NC4(C(=O)N[C@@H](CCC(=O)N(C)C)C(=O)N[C@@H](CC(N)=O)C(=O)N[C@@H](Cc5cccnc5)C(=O)N(C)CC(=O)N(C)C)CCOCC4)NC(=O)[C@H](CCC(=O)N(C)C)NC3=O)c[nH]c12 [compound 154, cPEG3aCO-Pen(3)-N(N(Me)2)-T-7MeW-Q(N(Me)2)-Pen(3)-AEF(N(Me)2)-2Nal-THP-Q(N(Me)2)-N-3Pya-Sar-CON(Me)2] ({Me3N+(CH2)2O(CH2)2O(CH2)2CO}-[Pen]D(NMe2)T[Trp(7-Me)]E(NMe2)[Pen]Y(Me2NCH2CH2)[2Nal][Thp]E(NMe2)N[3Pal][Sar]-NMe2; disulfide 1-6) | 144 A^2
CC(=O)NCCCC[C@@H]1NC(=O)[C@H](Cc2c[nH]c3c(C)cccc23)NC(=O)[C@H]([C@@H](C)O)NC(=O)[C@H](CC(N)=O)NC(=O)[C@@H](NC(C)=O)C(C)(C)SSC(C)(C)[C@@H](C(=O)N[C@@H](Cc2ccc(OCCN)cc2)C(=O)N[C@@H](Cc2ccc3ccccc3c2)C(=O)NC2(C(=O)N[C@@H](CCCCNC(C)=O)C(=O)N[C@@H](CC(N)=O)C(=O)N[C@@H](Cc3cccnc3)C(=O)N(C)CC(=O)NCCOCCOCCOCCOCC[N+](C)(C)C)CCOCC2)NC1=O [compound 155] (Ac-[Pen]NT[Trp(7-Me)]K(Ac)[Pen][AEF][2Nal][Thp]K(Ac)N[3Pal][Sar]-X82; disulfide 1-6 (inferred)) | 150 A^2
COCCOCCOCCOCCOCCOCCC(=O)N(C)CC[C@@H]1NC(=O)[C@H](Cc2c[nH]c3c(C)cccc23)NC(=O)[C@H]([C@@H](C)O)NC(=O)[C@H](CC(=O)N(C)C)NC(=O)[C@@H](NC(C)=O)C(C)(C)SSC(C)(C)[C@@H](C(=O)N[C@@H](Cc2ccc(OCCN)cc2)C(=O)N[C@@H](Cc2ccc3ccccc3c2)C(=O)NC2(C(=O)N[C@@H](CCC(=O)O)C(=O)N[C@@H](CC(N)=O)C(=O)N[C@@H](Cc3cccnc3)C(=O)N(C)CC(=O)N(C)C)CCOCC2)NC1=O [compound 158, MeCO-Pen(3)-N(N(Me)2)-T-7MeW-Dab(NMeCOmPEG6)-Pen(3)-AEF-2Nal-THP-E-N-3Pya-Sar-CON(Me)2] (Ac-[Pen]D(NMe2)T[Trp(7-Me)][X1](X7)[Pen][AEF][2Nal][Thp]EN[3Pal][Sar]-NMe2; disulfide 1-6) | 160 A^2
CC(=O)N(C)CCCC[C@H](NC(=O)C1(NC(=O)[C@H](Cc2ccc3ccccc3c2)NC(=O)[C@H](Cc2ccc(OCCN)cc2)NC(=O)[C@H]2NC(=O)[C@H](CCC(=O)N(C)C)NC(=O)[C@H](Cc3c[nH]c4c(C)cccc34)NC(=O)[C@H]([C@@H](C)O)NC(=O)[C@H](CC(N)=O)NC(=O)[C@@H](NC(=O)CCOCCOCC[N+](C)(C)C)C(C)(C)SSC2(C)C)CCOCC1)C(=O)N[C@@H](CC(N)=O)C(=O)N[C@@H](Cc1cccnc1)C(=O)N(C)CC(N)=O [compound 168, cPEG3aCO-Pen(3)-N-T-7MeW-Q(N(Me)2)-Pen(3)-AEF-2Nal-THP-K(NMeAc)-N-3Pya-Sar-CONH2] ({Me3N+(CH2)2O(CH2)2O(CH2)2CO}-[Pen]NT[Trp(7-Me)]E(NMe2)[Pen][AEF][2Nal][Thp][Lys(Me)](Ac)N[3Pal][Sar]-NH2; disulfide 1-6) | 154 A^2
CC(=O)N(C)CCCC[C@@H]1NC(=O)[C@H](Cc2c[nH]c3c(C)cccc23)NC(=O)[C@H]([C@@H](C)O)NC(=O)[C@H](CC(=O)N(C)C)NC(=O)[C@@H](NC(=O)CCOCCOCC[N+](C)(C)C)C(C)(C)SSC(C)(C)[C@@H](C(=O)N[C@@H](Cc2ccc(OCCN)cc2)C(=O)N[C@@H](Cc2ccc3ccccc3c2)C(=O)NC2(C(=O)N[C@@H](CCCCN(C)C(C)=O)C(=O)N[C@@H](CC(N)=O)C(=O)N[C@@H](Cc3cccnc3)C(=O)N(C)CC(N)=O)CCOCC2)NC1=O [compound 169, cPEG3aCO-Pen(3)-N(N(Me)2)-T-7MeW-K(NMeAc)-Pen(3)-AEF-2Nal-THP-K(NMeAc)-N-3Pya-Sar-CONH2] ({Me3N+(CH2)2O(CH2)2O(CH2)2CO}-[Pen]D(NMe2)T[Trp(7-Me)][Lys(Me)](Ac)[Pen][AEF][2Nal][Thp][Lys(Me)](Ac)N[3Pal][Sar]-NH2; disulfide 1-6) | 154 A^2

Other lines, results leading:

EPSA | Compound
153 A^2 | CC(=O)N[C@@H]1C(=O)N[C@@H](CC(=O)N(C)C)C(=O)N[C@@H]([C@@H](C)O)C(=O)N[C@@H](Cc2c[nH]c3c(C)cccc23)C(=O)N[C@@H](CCCCN(C)C(C)=O)C(=O)N[C@H](C(=O)N[C@@H](Cc2ccc(OCCN)cc2)C(=O)N[C@@H](Cc2ccc3ccccc3c2)C(=O)NC2(C(=O)N[C@@H](CCCCN(C)C(C)=O)C(=O)N[C@@H](CC(N)=O)C(=O)N[C@@H](Cc3cccnc3)C(=O)N(C)CC(N)=O)CCOCC2)C(C)(C)SSC1(C)C [compound 182, MeCO-Pen(3)-N(N(Me)2)-T-7MeW-K(NMeAc)-Pen(3)-AEF-2Nal-THP-K(NMeAc)-N-3Pya-Sar-CONH2] (Ac-[Pen]D(NMe2)T[Trp(7-Me)][Lys(Me)](Ac)[Pen][AEF][2Nal][Thp][Lys(Me)](Ac)N[3Pal][Sar]-NH2; disulfide 1-6)
144 A^2 | CC(=O)NCCCC[C@@H]1NC(=O)[C@H](Cc2c[nH]c3c(C)cccc23)NC(=O)[C@H]([C@@H](C)O)NC(=O)[C@H](CC(N)=O)NC(=O)[C@@H](NC(C)=O)C(C)(C)SSC(C)(C)[C@@H](C(=O)N[C@@H](Cc2ccc(OCCNC(=O)CCOCCOCC[N+](C)(C)C)cc2)C(=O)N[C@@H](Cc2ccc3ccccc3c2)C(=O)NC2(C(=O)N[C@@H](CNC(C)=O)C(=O)N[C@@H](CC(N)=O)C(=O)N[C@@H](Cc3cccnc3)C(=O)N(C)CC(N)=O)CCOCC2)NC1=O [compound 189]
137 A^2 | CC(=O)N[C@@H]1C(=O)N[C@@H](CC(=O)N(C)C)C(=O)N[C@@H]([C@@H](C)O)C(=O)N[C@@H](Cc2c[nH]c3c(C)cccc23)C(=O)N[C@@H](CCCCN(C)C(C)=O)C(=O)N[C@H](C(=O)N[C@@H](Cc2ccc(OCCCCC[N+](C)(C)C)cc2)C(=O)N[C@@H](Cc2ccc3ccccc3c2)C(=O)NC2(C(=O)N[C@@H](CCCCN(C)C(C)=O)C(=O)N[C@@H](CC(N)=O)C(=O)N[C@@H](Cc3cccnc3)C(=O)N(C)CC(=O)N(C)C)CCOCC2)C(C)(C)SSC1(C)C [compound 190, MeCO-Pen(3)-N(N(Me)2)-T-7MeW-K(NMeAc)-Pen(3)-TMAPF-2Nal-THP-K(NMeAc)-N-3Pya-Sar-CON(Me)2] (Ac-[Pen]D(NMe2)T[Trp(7-Me)][Lys(Me)](Ac)[Pen]Y(X3)[2Nal][Thp][Lys(Me)](Ac)N[3Pal][Sar]-NMe2; disulfide 1-6 (inferred))
